From patent US11858951B2, “Boronic acid derivatives” (Merck Patent GmbH, priority 2017, dated 2024) come the findings set out here.

Assay [1] addresses LMP7 (purified human immuno proteasome) (Homo sapiens, UniProt P28062). Nature of the assay: Determination of LMP7 activity (fluorescence intensity assay, Suc-LLVY-AMC). Type of assay: biochemical. The settings on record: for Selectivity LMP7 vs Beta5: LMP7 versus Beta5, incubation for 20 minutes. On the procedure:
Biological Activity Determination of LMP7 Activity:
Measurement of LMP7 inhibition is performed in 384 well format based on fluorescence intensity assay.
(§1) Purified human immuno proteasome (0.25 nM) and serial diluted compounds in DMSO (range of concentrations from 30 μM to 15 pM) or controls are incubated for 20 minutes or 120 minutes (long incubation) at 25° C. in assay buffer containing 50 mM Tris pH 7.4, 0.03% SDS, 1 mM EDTA and 1% DMSO. The reaction is initiated by the addition of the fluorogenic peptide substrate, Suc-LLVY-AMC (Bachem 1-1395), at a concentration of 40 μM. After 60 minutes of incubation at 37° C., fluorescence intensity is measured at λex=350 nm and λem=450 nm with a fluorescence reader (Perkin Elmer Envision reader or equivalent).
(§2) Unless indicated otherwise the results are obtained after incubation for 20 minutes.

The target of assay [2] is Beta5 (purified human constitutive proteasome) (Homo sapiens, UniProt P28074). The assay can be described thus: Determination of Beta5 activity (fluorescence intensity assay, Suc-LLVY-AMC). Type of assay: biochemical. How it is done: Determination of Beta5 Activity:
Measurement of Beta5 inhibition is performed in 384 well format based on fluorescence intensity assay.
as §1, with “constitutive” for “immuno”, “(1.25” for “(0.25”
as §2

[3] abbreviates: incubation for 20 minutes at 25° C., concentrations 30 μM to 15 pM, read-out: LMP7 IC50.
[4] abbreviates: incubation for 20 minutes at 25° C., concentrations 30 μM to 15 pM, read-out: Beta5 IC50.

For orientation: IC50 means the concentration needed to halve the response being measured.

Like-named read-outs stand apart in the source and are kept apart here.

`Cc1cccc2c(C[C@H](NC(=O)[C@]34CC[C@H](O3)c3ccccc34)B(O)O)coc12` [compound 19, [(1R)-2-(7-methyl-1-benzofuran-3-yl)-1-{[(1R,8S)-11-oxatricyclo[6.2.1.0^2,7]undeca-2,4,6-trien-1-yl]formamido}ethyl]boronic acid]: the “Selectivity LMP7 vs Beta5” value in assay [1] was “+++++ (Selectivity ≥700)”. Moreover, the half-maximal inhibitory concentration (IC50) in assay [1] (setting [3]) is less than 5e-08 M; in assay [2] (setting [4]), 5e-06 to 3e-05 M.

Regarding `O=C(N[C@@H](Cc1coc2ccccc12)B(O)O)[C@H]1C[C@@H]2CC[C@H]1O2` [compound 8, [(1R)-2-(1-benzofuran-3-yl)-1-{[(1R,2S,4S)-7-oxabicyclo[2.2.1]heptan-2-yl]formamido}ethyl]boronic acid], in assay [1], the “Selectivity LMP7 vs Beta5” value was “++++ (500 ≤ Selectivity < 700)”. Further, the IC50 in assay [1] (setting [3]) is less than 5e-08 M; in assay [2] (setting [4]), 5e-06 to 3e-05 M.

As to `CC(C)C[C@H](NC(=O)[C@@H]1C[C@H]2CC[C@@H]1O2)B(O)O` [compound 28, [(1R)-3-methyl-1-{[(1S,2R,4R)-7-oxabicyclo[2.2.1]heptan-2-yl]formamido}butyl]boronic acid], the 50% inhibitory concentration (IC50) in assay [1] (setting [3]) was 5e-07 to 5e-06 M; in assay [2] (setting [4]) it was more than 3e-05 M.

As for `O=C(N[C@@H](Cc1coc2c(Cl)cccc12)B(O)O)[C@@H]1C[C@H]2CC[C@@H]1O2` [Compound No. 13, [(1R)-2-(7-chloro-1-benzofuran-3-yl)-1-{[(1S,2R,4R)-7-oxabicyclo[2.2.1]heptan-2-yl]formamido}ethyl]boronic acid], the “Selectivity LMP7 vs Beta5” value in assay [1] is “+++++ (Selectivity ≥700)”. The half-maximal inhibitory concentration (IC50) is less than 5e-08 M in assay [1] (setting [3]) and 5e-07 to 5e-06 M in assay [2] (setting [4]).

As for `Cc1cccc2c1OC[C@@H]2C[C@H](NC(=O)[C@@H]1C[C@H]2CC[C@@H]1O2)B(O)O` [compound 14, [(1R)-2-[(3R)-7-methyl-2,3-dihydro-1-benzofuran-3-yl]-1-{[(1S,2R,4R)-7-oxabicyclo[2.2.1]heptan-2-yl]formamido}ethyl]boronic acid], the IC50 is 5e-07 to 5e-06 M in assay [1] (setting [3]) and more than 3e-05 M in assay [2] (setting [4]).

As for `O=C(N[C@@H](C[C@@H]1COc2ccccc21)B(O)O)[C@]12CC[C@H](O1)c1ccccc12` [compound 16, [(1R)-2-[(3S)-2,3-dihydro-1-benzofuran-3-yl]-1-{[(1R,8S)-11-oxatricyclo[6.2.1.0^2,7]undeca-2(7),3,5-trien-1-yl]formamido}ethyl]boronic acid], in assay [1], the “Selectivity LMP7 vs Beta5” value is “+++++ (Selectivity ≥700)”. The half-maximal inhibitory concentration (IC50) in assay [1] (setting [3]) was less than 5e-08 M; in assay [2] (setting [4]) it was 5e-06 to 3e-05 M.

For `O=C(N[C@@H](CCc1ccccc1)B(O)O)[C@@H]1C[C@H]2CC[C@@H]1O2` [compound 27, [(1R)-1-{[(1S,2R,4R)-7-oxabicyclo[2.2.1]heptan-2-yl]formamido}-3-phenylpropyl]boronic acid], the IC50 in assay [1] (setting [3]) is 5e-07 to 5e-06 M; in assay [2] (setting [4]) it was more than 3e-05 M.

Turning to `Cc1cccc2c1OC[C@H]2C[C@H](NC(=O)[C@@H]1C[C@H]2CC[C@@H]1O2)B(O)O` [compound 15, [(1R)-2-[(3S)-7-methyl-2,3-dihydro-1-benzofuran-3-yl]-1-{[(1S,2R,4R)-7-oxabicyclo[2.2.1]heptan-2-yl]formamido}ethyl]boronic acid], the “Selectivity LMP7 vs Beta5” value in assay [1] is given as “+++++ (Selectivity ≥700)”. For the same compound, the results for the IC50 in assay [1] (setting [3]) and in assay [2] (setting [4]) were less than 5e-08 M and 5e-06 to 3e-05 M, respectively.

For the compound `O=C(N[C@@H](Cc1coc2ccccc12)B(O)O)C1C[C@@H]2O[C@H]1c1ccccc12` (stereo partly drawn) [compound 24, [(1R)-2-(1-benzofuran-3-yl)-1-{[(1S,8R)-11-oxatricyclo[6.2.1.0^2,7]undeca-2(7),3,5-trien-9-yl]formamido}ethyl]boronic acid], the “Selectivity LMP7 vs Beta5” value in assay [1] was “+ (Selectivity <100)”. Besides, the half-inhibitory concentration (IC50) in assay [1] (setting [3]) is less than 5e-08 M; in assay [2] (setting [4]), 5e-08 to 5e-07 M.

With `Cc1ccc(C[C@H](NC(=O)[C@@H]2C[C@H]3CC[C@@H]2O3)B(O)O)c(C)c1` [compound 25, [(1R)-2-(2,4-dimethylphenyl)-1-{[(1S,2R,4R)-7-oxabicyclo[2.2.1]heptan-2-yl]formamido}ethyl]boronic acid], the “Selectivity LMP7 vs Beta5” value in assay [1] is reported as “++ (100 ≤ Selectivity < 300)”. Also, the results for the IC50 in assay [1] (setting [3]) and in assay [2] (setting [4]) were 5e-08 to 5e-07 M and 5e-06 to 3e-05 M, respectively.

Take `O=C(N[C@@H](C[C@@H]1COc2ccccc21)B(O)O)[C@H]1C[C@@H]2CC[C@H]1O2` [compound 2, [(1R)-2-[(3S)-2,3-dihydro-1-benzofuran-3-yl]-1-{[(1R,2S,4S)-7-oxabicyclo[2.2.1]heptan-2-yl]formamido}ethyl]boronic acid]: the “Selectivity LMP7 vs Beta5” value in assay [1] was “+++ (300 ≤ Selectivity < 500)”. Further, the IC50 in assay [1] (setting [3]) lay within 5e-08 to 5e-07 M; in assay [2] (setting [4]), 5e-06 to 3e-05 M.

Turning to `O=C(N[C@@H](Cc1coc2ccccc12)B(O)O)C1C[C@H]2O[C@@H]1c1ccccc12` (stereo partly drawn) [compound 22, [(1R)-2-(1-benzofuran-3-yl)-1-{[(1R,8S)-11-oxatricyclo[6.2.1.0^2,7]undeca-2(7),3,5-trien-9-yl]formamido}ethyl]boronic acid], in assay [1], the “Selectivity LMP7 vs Beta5” value is reported as “++ (100 ≤ Selectivity < 300)”. Further, the half-inhibitory concentration (IC50) was less than 5e-08 M in assay [1] (setting [3]) and 5e-06 to 3e-05 M in assay [2] (setting [4]).

Turning to `O=C(N[C@@H](C[C@@H]1COc2ccccc21)B(O)O)[C@@H]1C[C@H]2CC[C@@H]1O2` [Compound No. 1, [(1R)-2-[(3S)-2,3-dihydro-1-benzofuran-3-yl]-1-{[(1S,2R,4R)-7-oxabicyclo[2.2.1]heptan-2-yl]formamido}ethyl]boronic acid], the “Selectivity LMP7 vs Beta5” value in assay [1] is recorded as “+++++ (Selectivity ≥700)”. Moreover, the results for the IC50 in assay [1] (setting [3]) and in assay [2] (setting [4]) were less than 5e-08 M and 5e-06 to 3e-05 M, respectively.

For `O=C(N[C@@H](Cc1coc2ccccc12)B(O)O)[C@H]1C2C(=O)N(C3CC3)C[C@]23C=C[C@H]1O3` (stereo partly drawn) [compound 17, [(1R)-2-(1-benzofuran-3-yl)-1-{[(1S,6S,7R)-3-cyclopropyl-4-oxo-10-oxa-3-azatricyclo[5.2.1.0^1,5]dec-8-en-6-yl]formamido}ethyl]boronic acid], in assay [1], the “Selectivity LMP7 vs Beta5” value was “++ (100 ≤ Selectivity < 300)”. Further, the half-maximal inhibitory concentration (IC50) in assay [1] (setting [3]) was less than 5e-08 M; in assay [2] (setting [4]), 5e-06 to 3e-05 M.

In the case of `Cc1cccc2c(C[C@H](NC(=O)[C@@]34CC[C@@H](O3)c3ccccc34)B(O)O)coc12` [compound 20, [(1R)-2-(7-methyl-1-benzofuran-3-yl)-1-{[(1S,8R)-11-oxatricyclo[6.2.1.0^2,7]undeca-2,4,6-trien-1-yl]formamido}ethyl]boronic acid], the “Selectivity LMP7 vs Beta5” value in assay [1] is on record as “++++ (500 ≤ Selectivity < 700)”. The concentration for half-maximal inhibition (IC50) in assay [1] (setting [3]) was less than 5e-08 M; in assay [2] (setting [4]), 5e-06 to 3e-05 M.

As for `C[C@@]12CC[C@@](C(=O)N[C@@H](C[C@@H]3COc4ccccc43)B(O)O)(O1)c1ccccc12` [compound 23, [(1R)-2-[(3S)-2,3-dihydro-1-benzofuran-3-yl]-1-{[(1R,8S)-8-methyl-11-oxatricyclo[6.2.1.0^2,7]undeca-2,4,6-trien-1-yl]formamido}ethyl]boronic acid], in assay [1], the “Selectivity LMP7 vs Beta5” value is “+++++ (Selectivity ≥700)”. Besides, the IC50 in assay [1] (setting [3]) was less than 5e-08 M; in assay [2] (setting [4]) it was 5e-06 to 3e-05 M.

Consider `C[C@]12CC[C@](C(=O)N[C@@H](C[C@@H]3COc4ccccc43)B(O)O)(O1)c1ccccc12` [compound 21, [(1R)-2-[(3S)-2,3-dihydro-1-benzofuran-3-yl]-1-{[(1S,8R)-8-methyl-11-oxatricyclo[6.2.1.0^2,7]undeca-2,4,6-trien-1-yl]formamido}ethyl]boronic acid], for which the “Selectivity LMP7 vs Beta5” value in assay [1] was “+++++ (Selectivity ≥700)”. The IC50 in assay [1] (setting [3]) is less than 5e-08 M; in assay [2] (setting [4]) it was 5e-06 to 3e-05 M.

With `O=C(N[C@@H](C[C@@H]1COc2ccccc21)B(O)O)[C@@]12CC[C@@H](O1)c1ccccc12` [compound 18, [(1R)-2-[(3S)-2,3-dihydro-1-benzofuran-3-yl]-1-{[(1S,8R)-11-oxatricyclo[6.2.1.0^2,7]undeca-2(7),3,5-trien-1-yl]formamido}ethyl]boronic acid], the “Selectivity LMP7 vs Beta5” value in assay [1] is on record as “+++++ (Selectivity ≥700)”. Besides, the 50% inhibitory concentration (IC50) was less than 5e-08 M in assay [1] (setting [3]) and 5e-06 to 3e-05 M in assay [2] (setting [4]).

For the compound `O=C(N[C@@H](Cc1coc2ccccc12)B(O)O)[C@@H]1C[C@H]2CC[C@@H]1O2` [Compound No. 9, [(1R)-2-(1-benzofuran-3-yl)-1-{[(1S,2R,4R)-7-oxabicyclo[2.2.1]heptan-2-yl]formamido}ethyl]boronic acid], the “Selectivity LMP7 vs Beta5” value in assay [1] is recorded as “+++++ (Selectivity ≥700)”. Also, the IC50 was less than 5e-08 M in assay [1] (setting [3]) and 5e-07 to 5e-06 M in assay [2] (setting [4]).

Take `O=C(N[C@@H](CC1CCCCC1)B(O)O)[C@@H]1C[C@H]2CC[C@@H]1O2` [compound 26, [(1R)-2-cyclohexyl-1-{[(1S,2R,4R)-7-oxabicyclo[2.2.1]heptan-2-yl]formamido}ethyl]boronic acid]: the IC50 in assay [1] (long incubation: 120 min at 25° C., read-out: LMP7 IC50 (M) (long)) was 5e-07 to 5e-06 M; in assay [2] (long incubation: 120 min at 25° C., read-out: Beta5 IC50 (M) (long)), more than 3e-05 M.
